The values that follow come from EP3345917A1, “ANTIPROTOZOAL COMPOUNDS” (Bacoba AG, priority 2017, dated 2018).

Data set [1] deals with Trypanosoma cruzi trypomastigote forms (Tulahuen strain). Put plainly: Intracellular Trypanosoma cruzi assay in L6-cells, beta-galactosidase/CPRG readout. The format is cell-based. As to the method: (§1) Tests were done in triplicate.
Trypanosoma cruzi trypomastigote forms (Tulahuen strain C2C4 containing β-galactosidase (Lac Z) gene) were cultured as described by Buckner et al. (Buckner FS et al. Antimicrob Agents Ch1996; 40: 2592-2597) in rat myoblast cells (L6-cells). […] After incubation, the substrate chlorophenyl red β-D-galactopyranoside agent CPRG/Nonident was added to all wells and a color change was developed within 2 to 6 h. The plates were read photometrically at 540 nm (Molecular Devices). Data were evaluated and IC50 values calculated using Softmax Pro software (Molecular Devices).

Data set [2] is described as follows: Cytotoxicity assay on L6-cells (Alamar Blue). The following applies: rat, Cytotox L6, Cytotoxicity against rat myoblast cells (L6).
Procedure: Tests were done in triplicate. IC50 values against the parasites as well as cytotoxic effects against rat myoblast (L6-cells) were determined by serial dilution and repeated twice.
After 68 h of incubation under humidified 5% CO2 atmosphere, 10 µl of the Alamar blue marker was added to all wells. The plates were incubated for an additional 2 h. […] The IC50S were calculated by Softmax Pro software (Molecular Devices Cooperation, Sunnyvale, CA). […] Cytotoxicity was measured against rat myoblast cells (Cytotox L6).
The subject of data set [3] is Axenically grown Leishmania donovani amastigotes (strain MHOM/ET/67/L82). Put plainly: Axenic Leishmania donovani amastigote resazurin assay. The format is cell-based. The protocol: as §1
Axenically grown Leishmania donovani amastigotes (strain MHOM/ET/67/L82) were grown and tests were done as previously described using the resazurin assay (Räz B et al. Acta Tropica 1997, 68:139-147). The plates were developed for 2-4 hours and read on a Spectramax Gemini XS micro plate fluorometer (Molecular Devices Cooperation) using an excitation wavelength of 536 nm and emission wavelength of 588 nm. Fluorescence development was measured and expressed as percentage of the negative control. […] Data were transferred to the graphic programme Softmax Pro (Molecular Devices), with which IC50 values were calculated.
For orientation: Resazurin is reduced to fluorescent resorufin, in cell work by metabolically active cells.

Data set [4] concerns Trypanosoma brucei rhodesiense (STIB 900 strain). Put plainly: Alamar Blue assay against Trypanosoma brucei rhodesiense grown in axenic medium. The format is cell-based. The protocol: as §1
Trypanosoma brucei rhodesiense (STIB 900) were grown in axenic medium as described by Baltz et al. (1985) The samples were tested using the Alamar Blue assay protocol (Baltz T et al. EMBO J 1985; 4:1273-1277) to determine the 50% inhibitory concentration (IC50). […] Melarsoprol (Arsobal®, Sanofi-Aventis, Switzerland) was used as a reference drug (IC50= 0.03 ± 0.01 µM). Its purity was over 95 %, as was certified by the supplier. The IC50 values were calculated by using Softmax Pro software (Molecular Devices Cooperation, Sunnyvale, CA).

[5] abbreviates: In vitro inhibition, read-out: L.don. ax.
[6] abbreviates: In vitro inhibition, read-out: T.b.rhod.
The mark [7] stands for this setting: In vitro inhibition, read-out: T.cruzi.

Where two headings read alike, the source gives them in different places. Non-standard residues stand in square brackets, D forms with d. Residues, ends and D or L forms follow the SMILES beside them. *: point of attachment. CH3O(CH2CH2O)11CH2CH2CO = COCCOCCOCCOCCOCCOCCOCCOCCOCCOCCOCCOCCC(=O)*; Hexenoyl(2E,4S-Me) = CC[C@H](C)/C=C/C(=O)*; Leu(3R-OH) = CC(C)[C@@H](O)[C@H](N)C(=O)O; NH((S)CH(Me)CH2NMe2) = C[C@@H](CN(C)C)N*; NH(1-CH2NMe2-cBu) = CN(C)CC1(N*)CCC1; Gly(octyl) = CCCCCCCC[C@H](N)C(=O)O; Oxazole4CO(2-Me) = Cc1nc(C(=O)*)co1; X3 = O=C(c1coc(-c2ccccc2)n1)*; Morpholide = C1CN(*)CCO1; X25 = CN(C)CC1(N*)CCCC1; X23 = CN1CCC12CN(*)C2; Aib = CC(C)(N)C(=O)O; βAla = NCCC(=O)O Bounds are passed on as bounds.

In the case of `O=C(Cn1ccnc1[N+](=O)[O-])NCc1ccccc1` [Benznidazol], the IC50 in data set [1] (TULAHUEN, In vitro inhibition, intracellular Trypanosoma cruzi, read-out: T.cruzi.) was 2.08 µM.

`O=C(Cn1ccnc1[N+](=O)[O-])NCc1ccccc1` [Benznidazole, benznidazole]: the IC50 in data set [1] (Trypanosoma cruzi, standard drug, T. cruzi Tulahuen C2C4 in L6-cells, read-out: IC50) stood at 0.48 µg/mL. In the case of `CCCCCCCC[C@H](NC(=O)[C@@H]1CCCN1C(=O)/C=C/[C@@H](C)CC)C(=O)N[C@H](C(=O)NC(C)(C)C(=O)N[C@@H](CC(C)C)C(=O)N[C@@H](CC(C)C)C(=O)NC(C)(C)C(=O)NC(C)(C)C(=O)NCCC(=O)N[C@@H](C)CN(C)C)[C@@H](C)O` [Compound 5520] ({Hexenoyl(2E,4S-Me)}-P[Gly(octyl)]T[Aib]LL[Aib][Aib][βAla]-{NH((S)CH(Me)CH2NMe2)}), in data set [2], the IC50 at 70 h is 0.93 µM. On the same count and under the same terms, with `CCCCCCCC[C@H](NC(=O)[C@@H]1CCCN1C(=O)/C=C/[C@@H](C)CC)C(=O)N[C@H](C(=O)NC(C)(C)C(=O)N[C@@H](CC(C)C)C(=O)N[C@@H](CC(C)C)C(=O)NC(C)(C)C(=O)NC(C)(C)C(=O)NCCC(=O)N1CCOCC1)[C@H](O)C(C)C` [Compound 5572] ({Hexenoyl(2E,4S-Me)}-P[Gly(octyl)][Leu(3R-OH)][Aib]LL[Aib][Aib][βAla]-Morpholide) the figure was 1.42 µM.

In data set [2], `CCCCCCCC[C@H](NC(=O)[C@@H]1CCCN1C(=O)c1coc(-c2ccccc2)n1)C(=O)N[C@@H](CC(C)C)C(=O)NC(C)(C)C(=O)N[C@@H](CC(C)C)C(=O)N[C@@H](CC(C)C)C(=O)NC(C)(C)C(=O)NC(C)(C)C(=O)NCCC(=O)N[C@@H](C)CN(C)C` [Compound 5906, (2S)-N-[(1S)-1-[(1-{[(1S)-1-{[(1S)-1-{[1-({1-[(2-{[(2S)-1-(dimethylamino)propan-2-yl]carbamoyl}ethyl)carbamoyl]-1-methylethyl}carbamoyl)-1-methylethyl]carbamoyl}-3-methylbutyl]carbamoyl}-3-methylbutyl]carbamoyl}-1-methylethyl)carbamoyl]-3-methylbutyl]-2-{[(2S)-1-(2-phenyl-1,3-oxazole-4-carbonyl)pyrrolidin-2-yl]formamido}decanamide] (X3-P[Gly(octyl)]L[Aib]LL[Aib][Aib][βAla]-{NH((S)CH(Me)CH2NMe2)}) registered an IC50 at 70 h of 0.445 µM. The same measure, in the same setting: with `CCCCCCCC[C@H](NC(=O)[C@@H]1CCCN1C(=O)CCOCCOCCOCCOCCOCCOCCOCCOCCOCCOCCOCCOC)C(=O)N[C@@H](CC(C)C)C(=O)NC(C)(C)C(=O)N[C@@H](CC(C)C)C(=O)N[C@@H](CC(C)C)C(=O)NC(C)(C)C(=O)NC(C)(C)C(=O)NCCC(=O)N[C@@H](C)CN(C)C` [Compound 6067, (2S)-N-[(1S)-1-[(1-{[(1S)-1-{[(1S)-1-{[1-({1-[(2-{[(2S)-1-(dimethylamino)propan-2-yl]carbamoyl}ethyl)carbamoyl]-1-methylethyl}carbamoyl)-1-methylethyl]carbamoyl}-3-methylbutyl]carbamoyl}-3-methylbutyl]carbamoyl}-1-methylethyl)carbamoyl]-3-methylbutyl]-2-{[(2S)-1-(2,5,8,11,14,17,20,23,26,29,32,35-dodecaoxaoctatriacontanoyl)pyrrolidin-2-yl]formamido}decanamide] ({CH3O(CH2CH2O)11CH2CH2CO}-P[Gly(octyl)]L[Aib]LL[Aib][Aib][βAla]-{NH((S)CH(Me)CH2NMe2)}) the figure was 4.64 µM. Consider `CCCCCCCC[C@H](NC(=O)[C@@H]1CCCN1C(=O)c1coc(C)n1)C(=O)N[C@@H](CC(C)C)C(=O)NC(C)(C)C(=O)N[C@@H](CC(C)C)C(=O)N[C@@H](CC(C)C)C(=O)NC(C)(C)C(=O)NC(C)(C)C(=O)NCCC(=O)NC1(CN(C)C)CCC1` [Compound 6253, (2S)-N-[(1S)-1-[(1-{[(1S)-1-{[(1S)-1-({1-[(1-{[2-({1-[(dimethylamino)methyl]cyclobutyl}carbamoyl)ethyl]carbamoyl}-1-methylethyl)carbamoyl]-1-methylethyl}carbamoyl)-3-methylbutyl]carbamoyl}-3-methylbutyl]carbamoyl}-1-methylethyl)carbamoyl]-3-methylbutyl]-2-{[(2S)-1-(2-methyl-1,3-oxazole-4-carbonyl)pyrrolidin-2-yl]formamido}decanamide] ({Oxazole4CO(2-Me)}-P[Gly(octyl)]L[Aib]LL[Aib][Aib][βAla]-{NH(1-CH2NMe2-cBu)}), for which the IC50 in data set [3] (setting [5]) was 46.8 µM; in data set [4] (setting [6]) it was under 0.0009 µM; in data set [1] (setting [7]) it was 0.0684 µM. Taken in the same sequence, the figures for `CCCCCCCC[C@H](NC(=O)[C@@H]1CCCN1C(=O)c1coc(C)n1)C(=O)N[C@@H](CC(C)C)C(=O)NC(C)(C)C(=O)N[C@@H](CC(C)C)C(=O)N[C@@H](CC(C)C)C(=O)NC(C)(C)C(=O)NC(C)(C)C(=O)NCCC(=O)NC1(CN(C)C)CCCC1` [Compound 6254, (2S)-N-[(1S)-1-[(1-{[(1S)-1-{[(1S)-1-({1-[(1-{[2-({1-[(dimethylamino)methyl]cyclopentyl}carbamoyl)ethyl]carbamoyl}-1-methylethyl)carbamoyl]-1methylethyl}carbamoyl)-3-methylbutyl]carbamoyl}-3-methylbutyl]carbamoyl}-1-methylethyl)carbamoyl]-3-methylbutyl]-2-{[(2S)-1-(2-methyl-1,3-oxazole-4-carbonyl)pyrrolidin-2-yl]formamido}decanamide] ({Oxazole4CO(2-Me)}-P[Gly(octyl)]L[Aib]LL[Aib][Aib][βAla]-X25) were 13.9 µM, under 0.0008 µM and 0.0346 µM. With `CCCCCCCC[C@H](NC(=O)[C@@H]1CCCN1C(=O)c1coc(C)n1)C(=O)N[C@@H](CC(C)C)C(=O)NC(C)(C)C(=O)N[C@@H](CC(C)C)C(=O)N[C@@H](CC(C)C)C(=O)NC(C)(C)C(=O)NC(C)(C)C(=O)NCCC(=O)N1CC2(CCN2C)C1` [Compound 6255, (2S)-2-{[(2S)-1-(2-methyl-1,3-oxazole-4-carbonyl)pyrrolidin-2-yl]formamido}-N-[(1S)-3-methyl-1-[(1-methyl-1-[(1S)-3-methyl-1-{[(1S)-3-methyl-1-{{[1-methyl-1-({1-methyl-1-[(3-{1-methyl-1,6-diazaspiro[3.3]heptan-6-yl}-3-oxopropyl)carbamoyl]ethyl}carbamoyl)ethyl]carbamoyl}butyl]carbamoyl}butyl]carbamoyl}ethyl)carbamoyl]butyl]decanamide] ({Oxazole4CO(2-Me)}-P[Gly(octyl)]L[Aib]LL[Aib][Aib][βAla]-X23), the figures for the IC50 in data set [3] (setting [5]), in data set [4] (setting [6]) and in data set [1] (setting [7]) were 4.09 µM, 0.461 µM and 3.71 µM, respectively. Moreover, the IC50 at 70 h in data set [2] is 7.17 µM. Regarding `Nc1nc(N)nc(Nc2ccc([As]3SCC(CO)S3)cc2)n1` (stereo not shown) [Melarsoprol, melarsoprol], the IC50 in data set [4] (read-out: T.b.rhod.) amounted to 0.007 µM; in data set [4] (reference drug, T. b. rhodesiense STIB 900, Alamar Blue, read-out: IC50), 0.03 ± 0.01 µM.

`CCCCCCCCCCCCCCCCOP(=O)([O-])OCC[N+](C)(C)C` [Miltfosine]: the IC50 in data set [3] (Leishmania donovani, reference drug, axenic L. donovani amastigotes, resazurin assay, read-out: IC50) is 0.241 µg/mL.
